This is an account of results in publication PMC10180076, “Novel Biologically Active N-Substituted Benzimidazole Derived Schiff Bases: Design, Synthesis, and Biological Evaluation” (Molecules, 2023).

A short description of data set [1]: in vitro. As to conditions: human.
Data set [2] concerns herpes simplex virus-1 (HSV-1 KOS). Put plainly: Antiviral CPE reduction assay, HSV-1 KOS in HEL 299. As to conditions: Human alphaherpesvirus 1; HEL 299 cells, 100 CCID50, MTS. The class given is cell-based.
The subject of data set [3] is influenza B (B/Ned/537/05). Description: Antiviral CPE reduction assay, influenza B in MDCK. The class given is cell-based. As to conditions: Influenza B virus; MDCK cells, 100 CCID50, MTS.
The test system of data set [4] is human coronavirus HCoV-NL63. Put plainly: Antiviral CPE reduction assay, HCoV-NL63 in Huh-7. The class given is cell-based. As to conditions: Huh-7 cells, 100 CCID50, MTS.
In data set [5] the test system is influenza A/H1N1 (A/Ned/378/05). Description: Antiviral CPE reduction assay, influenza A/H1N1 in MDCK. In kind it is cell-based. As to conditions: Influenza A virus, MDCK cells, 100 CCID50, MTS.
Data set [6] deals with yellow fever virus (YFV 17D). Description: microbe, parasite or virus in culture. The class given is cell-based. As to conditions: Huh-7, read-out: Antiviral Activity (EC50/μM) YFV 17D Huh-7.
For data set [7], the system named is respiratory syncytial virus A (Long). Description: Antiviral CPE reduction assay, RSV A in HEL 299. In kind it is cell-based. As to conditions: human respiratory syncytial virus; HEL 299 cells, 100 CCID50, MTS.
The test system of data set [8] is human coronavirus HCoV-229E. Put plainly: organism not typed. The class given is cell-based. As to conditions: HEL 299 cells, 100 CCID50, MTS; read-out: Antiviral Activity (EC50/μM) HCoV 229E HEL 299.
The subject of a further data set is sindbis virus. Description: Antiviral CPE reduction assay, Sindbis virus in Huh-7. In kind it is cell-based. As to conditions: Huh-7 cells, 100 CCID50, MTS.
The subject of a further data set is Zika virus (Mr776). Put plainly: Antiviral CPE reduction assay, Zika virus in Huh-7. The class given is cell-based. As to conditions: Huh-7 cells, 100 CCID50, MTS.
The nature of data set [9]: in vitro. As to conditions: dog.
The nature of data set [10]: in vitro. As to conditions: human. The source holds these as a separate data set.
Data set [11] concerns human coronavirus HCoV-OC43. Description: microbe, parasite or virus in culture. In kind it is cell-based. As to conditions: Betacoronavirus 1, OC43; HEL 299 cells, 100 CCID50, MTS; read-out: Antiviral Activity (EC50/μM) HCoV OC43 HEL 299.
For data set [12], the system named is influenza A/H3N2 (A/HK/7/87). Put plainly: Antiviral CPE reduction assay, influenza A/H3N2 in MDCK. As to conditions: Influenza A virus, MDCK cells, 100 CCID50, MTS. In kind it is cell-based.
Data set [13] deals with HL-60, acute myeloid leukemia. Put plainly: Proliferation assay (MTS, 72 h), HL-60. The class given is cell-based, human. As to conditions: Homo sapiens, HL-60. An excerpt:
(§1) Human cancer cells used in this manuscript, namely Capan-1, HCT-116, NCI-H460, LN-229, HL-60, K-562, and Z-138, were acquired from the American Type Culture Collection (ATCC, Manassas, VA, USA), while the DND-41 cell line was purchased from the Deutsche Sammlung von Mikroorganismen und Zellkulturen (DSMZ Leibniz-Institut, Braunschweig, Germany). Culture media were purchased from Gibco Life Technologies, Merelbeke, Belgium, and supplemented with 10% fetal bovine serum (HyClone, Cytiva, Marlborough, MA, USA). Vincristine and docetaxel, which were used as the reference inhibitors, were purchased from Selleckchem (Munich, Germany). Stock solutions were prepared in DMSO.
(§2) Adherent cell lines LN-229, HCT-116, and NCI-H460 and Capan-1 cells were seeded at a density between 500 and 1500 cells per well, in 384-well tissue culture plates (Greiner, Kremsmünster, Austria). After overnight incubation, the cells were treated with seven different concentrations of the test compounds, ranging from 100 to 0.006 µM.
(§3) Suspension cell lines HL-60, K-562, Z-138, and DND-41 were seeded at densities ranging from 2500 to 5500 cells per well in 384-well culture plates containing the test compounds at the same concentration points. The cells were incubated for 72 h with the compounds and were then analyzed using the CellTiter 96® AQueous One Solution Cell Proliferation Assay (MTS) reagent (Promega, Madison, WI, USA) according to the manufacturer’s instructions. […] The compounds were tested in two independent experiments.

In data set [14] the test system is K-562, chronic myeloid leukemia. Put plainly: Proliferation assay (MTS, 72 h), K-562. In kind it is cell-based, human. As to conditions: Homo sapiens, K562.
From the text: as §1, §2, §3

In another data set the test system is NCI-H460, lung carcinoma. Put plainly: Proliferation assay (MTS, 72 h), NCI-H460. In kind it is cell-based, human. As to conditions: Homo sapiens, NCI-H460.
From the text: as §1, §2, §3

Data set [15] deals with Z-138, non-Hodgkin lymphoma. Put plainly: Proliferation assay (MTS, 72 h), Z-138. The class given is cell-based, human. As to conditions: Homo sapiens, Z-138.
From the text: as §1, §2, §3

In data set [16] the test system is DND-41, acute lymphoblastic leukemia. Description: Proliferation assay (MTS, 72 h), DND-41. The class given is cell-based, human. As to conditions: Homo sapiens, DND41.
From the text: as §1, §2, §3

Data set [17] has as its system Capan-1, pancreatic adenocarcinoma. Put plainly: Proliferation assay (MTS, 72 h), Capan-1. In kind it is cell-based, human. As to conditions: Homo sapiens, CAPAN-1.
From the text: as §1, §2, §3

The test system of data set [18] is HCT-116, colorectal carcinoma. Description: Proliferation assay (MTS, 72 h), HCT-116. As to conditions: Homo sapiens, HCT-116. In kind it is cell-based, human.
From the text: as §1, §2, §3

The subject of a further data set is LN-229, glioblastoma. Description: Proliferation assay (MTS, 72 h), LN-229. The class given is cell-based, human. As to conditions: Homo sapiens, LN-229.
From the text: as §1, §2, §3

With `O=c1[nH]c(=O)n([C@H]2C[C@H](O)[C@@H](CO)O2)cc1/C=C/Br` [BVDU, brivudine, reference compound], the CC50 in “in vitro [1]” was above 100 µM. Besides, the EC50 in data set [2] amounted to 0.05 µM.

Turning to `CC(C)Cn1c(N)nc2ccccc21` [Compound 17, 2-amino-1-isobutylbenzimidazole], the EC50 in data set [3], in data set [4], in data set [5], in data set [6], in data set [2] and in [7] was above 100 µM throughout. In addition, the EC50 was 78.9 µM in data set [8]; above 100 µM in the data set on sindbis virus; above 100 µM with Zika virus (Mr776); above 100 µM in [11]; above 100 µM in data set [12]. The CC50 in the data set “in vitro [1]”, in “in vitro [9]” and in “in vitro [10]” was above 100 µM each time.

For the molecule `Cn1c(N)nc2ccccc21` [Compound 18, 2-amino-1-methylbenzimidazole], the EC50 in data set [3], in data set [4], in data set [5], in data set [6], in [2] and in data set [7] was above 100 µM in each case. The EC50 in [8] is above 100 µM; with sindbis virus, above 100 µM; with Zika virus (Mr776) it was 43.1 µM; in data set [11], above 100 µM; in data set [12], above 100 µM. The CC50 in “in vitro [1]”, in “in vitro [9]” and in “in vitro [10]” was above 100 µM each time.

In the case of `Cn1c(N)nc2ccc(C#N)cc21` [Compound 22, 2-amino-6-cyano-1-methylbenzimidazole], the EC50 is above 100 µM in [3]; above 100 µM in data set [4]; above 100 µM in [5]; above 100 µM in data set [6]; above 100 µM in data set [2]; 78.7 µM in data set [7]. Moreover, the EC50 in data set [8] was above 100 µM; with sindbis virus, above 100 µM; in the data set with Zika virus (Mr776) it was 46.4 µM; in data set [11], above 100 µM; in data set [12], above 100 µM. Moreover, the CC50 in “in vitro [1]”, in “in vitro [9]” and in the data set “in vitro [10]” was above 100 µM in each case.

What is called IC50 is the concentration needed to halve the response being measured. One may read the melting point as the temperature of the solid-liquid transition. As to `CC(C)Cn1c(/N=C/c2ccc(N(C)C)cc2)nc2ccc(C#N)cc21` [Compound 29, (E)-2-((4-(Dimethylamino)benzylidene)amino)-1-isobutyl-1H-benzo[d]imidazole-6-carbonitrile], the melting point fell in the range of 283 to 285 °C. The molecule also had an IC50 in [13] of 42.8 µM. In addition, in data set [14], the IC50 is above 100 µM. This molecule also yielded an EC50 in data set [3] above 100 µM. For the same molecule, the CC50 in the data set “in vitro [1]” is above 100 µM. Further, the EC50 in [4] turned out to be 79.8 µM. In the data set on NCI-H460, lung carcinoma, this molecule registered an IC50 above 100 µM. In addition, in data set [15], the concentration for half-maximal inhibition (IC50) is above 100 µM. This molecule gave an EC50 in [5] of 94.1 µM. Further, the EC50 in [6] is above 100 µM. This molecule gave an EC50 in data set [2] above 100 µM. Besides, the EC50 in data set [7] was above 100 µM. In [16], this molecule had an IC50 above 100 µM. Besides, the EC50 in data set [8] is above 100 µM. Also, the EC50 in the data set with sindbis virus is above 100 µM. In the data set with Zika virus (Mr776), the EC50 is above 100 µM. The molecule further gave a concentration for half-maximal inhibition (IC50) in [17] above 100 µM. In “in vitro [9]”, this molecule registered a CC50 above 100 µM. For the same molecule, the CC50 in “in vitro [10]” is above 100 µM. In data set [11], the EC50 is above 100 µM. The molecule further had an IC50 in [18] above 100 µM. For the same molecule, the IC50 with LN-229, glioblastoma was above 100 µM. The molecule further returned an EC50 in data set [12] above 100 µM.

Turning to `CN(C)c1ccc(/C=N/c2nc3ccc(C#N)cc3n2C)cc1` [Compound 34, (E)-2-((4-(Dimethylamino)benzylidene)amino)-1-methyl-1H-benzo[d]imidazole-6-carbonitrile], the IC50 was above 100 µM in data set [13]; above 100 µM in [14]; above 100 µM in the data set on NCI-H460, lung carcinoma; above 100 µM in data set [15]; above 100 µM in data set [16]; above 100 µM in [17]. For the same molecule, the IC50 in [18] was above 100 µM; in the data set on LN-229, glioblastoma it was above 100 µM. Further, the EC50 was 83.5 µM in [3]; 82.8 µM in [4]; above 100 µM in data set [5]; above 100 µM in data set [6]; above 100 µM in [2]; above 100 µM in data set [7]. The EC50 (in [8]; in the data set on sindbis virus; in the data set with Zika virus (Mr776); in data set [11]; in data set [12]) was above 100 µM in each case. In addition, the CC50 in “in vitro [1]”, in the data set “in vitro [9]” and in the data set “in vitro [10]” was above 100 µM throughout.

With `CCN(CC)c1ccc(/C=N/c2nc3ccc(C#N)cc3n2C)c(O)c1` [Compound 36, (E)-2-((4-(Diethylamino)-2-hydroxybenzylidene)amino)-1-methyl-1H-benzo[d]imidazole-6-carbonitrile], the half-inhibitory concentration (IC50) in [13] is above 100 µM; in [14] it was above 100 µM; with NCI-H460, lung carcinoma, above 100 µM; in data set [15] it was above 100 µM; in data set [16] it was 41.4 µM; in data set [17], above 100 µM. Moreover, the IC50 in [18] was above 100 µM; with LN-229, glioblastoma, above 100 µM. In addition, the EC50 in data set [3], in data set [4], in data set [5], in data set [6], in data set [2] and in data set [7] was above 100 µM throughout. The EC50 in data set [8] was 88.4 µM; with sindbis virus, above 100 µM; in the data set on Zika virus (Mr776), above 100 µM; in [11] it was above 100 µM; in [12], above 100 µM. Moreover, the CC50 in the data set “in vitro [1]”, in the data set “in vitro [9]” and in the data set “in vitro [10]” was above 100 µM throughout.

For the molecule `CCC(CC)COC(=O)[C@H](C)N[P@](=O)(OC[C@H]1O[C@@](C#N)(c2ccc3c(N)ncnn23)[C@H](O)[C@@H]1O)Oc1ccccc1` [Remdesivir, remdesivir, reference compound], the CC50 in the data set “in vitro [1]” and in “in vitro [10]” was above 10 µM each time. Besides, the EC50 is 0.03 µM in [4]; 6.2 µM in data set [6]; 0.03 µM in [7]; 0.06 µM in data set [8]; above 10 µM in the data set with sindbis virus; 0.7 µM with Zika virus (Mr776). Besides, in data set [11], the EC50 worked out at 0.06 µM.

For `NC(=O)c1ncn([C@@H]2O[C@H](CO)[C@@H](O)[C@H]2O)n1` [Ribavirin, ribavirin, reference compound], the EC50 is 2.8 µM in [3]; above 250 µM in data set [4]; 10.5 µM in data set [5]; above 250 µM in data set [6]; 10.8 µM in data set [7]; 82.6 µM in [8]. For the same molecule, the EC50 with sindbis virus was 148 µM; in the data set with Zika virus (Mr776), above 250 µM; in data set [12], 4 µM. The molecule also displayed a CC50 in “in vitro [9]” of 67 µM.
